Assay results taken from patent publication US4559326A, “Antiinflammatory compositions and methods” (Pfizer Inc., priority 1985, dated 1985).
Counter-ions that a name gives are not always drawn. One block for each compound: values may come before it.

System: Gastric lesions induced by the ethanolamine salt of piroxicam
Assay: Protective effect of inositol on piroxicam-induced gastric lesions in rats
Type: in vivo, rat (CD strain, Sprague-Dawley)
Settings: for Significance p < 0.05: two-tailed Student's t-test; for Lesions/Rat (X +/- SE): mean (SE)
Description: Adult male "specific pathogen free" rats weighing 140-160 grams of the CD strain (Sprague-Dawley) were obtained from Charles River Breeding Laboratories (Kingston, N.Y.). The animals were acclimated for approximately one week and tested when they reached a body weight of 200-225 grams. The rats were fasted for 16 hours and randomized into groups consisting of 8 to 20 animals which were normalized with regard to their average body weight.
Gastric ulcers were induced in the animals by orally dosing them with a single 120 mg/kg dose of piroxicam (ethanolamine salt) in 2 ml. of aqueous 0.1% methylcellulose (pH=6.8). Those animals receiving a second medicinal agent separately received the second drug in an additional 2 ml. of the same medium at about the same time. Six and one-half hours later, the animals were sacrificed by cervical dislocation and autopsied. The stomachs were surgically removed, dissected along the greater curvature and rinsed with cold water. The stomachs were individually scored for both linear and punctate lesions. The total number of lesions was used for scoring purposes. The data obtained from each group of rats were analyzed after calculation of the mean number +/- the standard error of total gastric lesions. The values obtained were also compared to the controls which received only piroxicam by the two-tailed Student's T-Test for nonpaired data.

Compound: O[C@H]1[C@H](O)[C@@H](O)[C@H](O)[C@@H](O)[C@H]1O [Inositol, cis-1,2,3,4-trans-4,6-cyclohexanehexol]
- ED50 (Rattus norvegicus, 6.5 h, oral, linear regression analysis, lesions induced by 120 mg/kg piroxicam ethanolamine salt, read-out: ED50 (dose of inositol required to inhibit 50% of control gastric lesion)): 85 mg/kg
- Reduction of piroxicam-induced gastric lesions (healthy fasted rat, statement in words): significantly reduces
- Significance p < 0.05 (inositol 10 mg/kg oral vs piroxicam-only control): + (p < 0.05)
- Lesions/Rat (X +/- SE) (inositol 10 mg/kg oral, with 120 mg/kg oral piroxicam ethanolamine salt, fasted male rats, 6.5 h, 40 rats): 4.7 (0.9) Lesions/Rat
- Significance p < 0.05 (inositol 33 mg/kg oral vs piroxicam-only control): + (p < 0.05)
- Lesions/Rat (X +/- SE) (inositol 33 mg/kg oral, with 120 mg/kg oral piroxicam ethanolamine salt, fasted male rats, 6.5 h, 40 rats): 5.2 (0.7) Lesions/Rat
- Significance p < 0.05 (inositol 100 mg/kg oral vs piroxicam-only control): + (p < 0.05)
- Lesions/Rat (X +/- SE) (inositol 100 mg/kg oral, with 120 mg/kg oral piroxicam ethanolamine salt, fasted male rats, 6.5 h, 40 rats): 3.6 (0.6) Lesions/Rat
- Significance p < 0.05 (inositol 333 mg/kg oral vs piroxicam-only control): + (p < 0.05)
- Lesions/Rat (X +/- SE) (inositol 333 mg/kg oral, with 120 mg/kg oral piroxicam ethanolamine salt, fasted male rats, 6.5 h, 40 rats): 3.0 (0.8) Lesions/Rat

- Lesions/Rat (X +/- SE) (control: 120 mg/kg oral piroxicam ethanolamine salt alone, inositol 0 mg/kg, 6.5 h, 30 rats): 7.5 (0.8) Lesions/Rat
Compound: CN1C(C(=O)Nc2ccccn2)=C(O)c2ccccc2S1(=O)=O [ethanolamine salt of piroxicam]
